Source: ChEMBL document CHEMBL5584231, “Rational design of a new short anticancer peptide with good potential for cancer treatment” (Eur J Med Chem, 2024)
Calls of active or inactive are those of the source. The rule behind the calls is not given here. Non-standard residues stand in square brackets, D forms with d. Residues, ends and D or L forms follow the SMILES beside them. Aad = N[C@@H](CCCC(=O)O)C(=O)O

Key:
[1] = Toxicity in female Balb/c mouse implanted with mouse 4T1 cells assessed as animal death at 12 micromol/kg, ip administered every other day for 2 weeks; format: organism-based; conditions: in vivo, 336 h, dose 12 µmol/kg
[2] = Acute toxicity in female Balb/c mouse assessed as reduction in survival rate at 65 to 110 mg/kg, ip administered as single dose and measured for 7 days; format: organism-based; conditions: in vivo, 168 h, dose 65-110 mg/kg, time 7 day
MCF7 [3] = assay: Induction of cell cycle arrest at G0/G1 phase in human MCF7 cells at 1 times IC50 measured after 24 hrs by PI/RNase staining based flow cytometry analysis; format: functional
[4] = Toxicity in female Balb/c mouse implanted with mouse 4T1 cells assessed as reduction in body weight at 12 micromol/kg, ip administered every other day for 2 weeks and measured every 2 days; format: organism-based; conditions: in vivo, 336 h, dose 12 µmol/kg
Cell membrane [5] = assay: Disruption of cell membrane in human MCF7 cells assessed as LDH release at 40 uM incubated for 1 hr by fluorescence based microplate reader analysis relative to control; format: cell membranes
[6] = Toxicity in female Balb/c mouse implanted with mouse 4T1 cells assessed as pathological changes in liver at 12 micromol/kg, ip administered every other day for 2 weeks by H and E staining based analysis; format: organism-based; conditions: in vivo, 336 h, dose 12 µmol/kg
Cell membrane [7] = assay: Disruption of cell membrane integrity in human MCF7 cells assessed as increase in PI fluorescence at 2 times IC50 measured after 0 to 120 mins by laser confocal scanning microscopic analysis; format: cell membranes; conditions: time 0-120 min
[8] = Acute toxicity in female Balb/c mouse assessed as reduction in survival rate at 50 mg/kg, ip administered as single dose and measured for 7 days; format: organism-based; conditions: in vivo, 168 h, time 7 day
MCF7 [9] = assay: Cytotoxicity against human MCF7 cells assessed as cell death at 1 times IC50 measured within 30 mins by MTT assay relative to control; format: functional; conditions: 0.5 h
[10] = Acute toxicity in female Balb/c mouse assessed as lung damage at approximately LD50 administered as single ip dose by H and E staining based analysis; format: organism-based; conditions: in vivo
MCF7 [11] = assay: Induction of apoptosis in human MCF7 cells assessed as early apoptotic cells at 1 times IC50 measured after 24 hrs by Annexin V-FITC staining based flow cytometry analysis (reference value: 0.014%); format: functional
MCF7 [12] = assay: Cytotoxicity against human MCF7 cells assessed as cell viability at 2 times IC50 measured for 30 mins by MTT assay relative to control; format: functional; conditions: 0.5 h
MCF7 [13] = assay: Induction of apoptosis in human MCF7 cells assessed as dead cells at 1 times IC50 measured after 24 hrs by Annexin V-FITC staining based flow cytometry analysis (reference value: 6.41%); format: functional
[14] = Cytotoxicity against HK-2 cells assessed as inhibition of cell growth incubated for 1 hr by MTT assay; format: toxicity, cell-based; conditions: human
[15] = Acute toxicity in ip dosed female Balb/c mouse administered as single dose and measured for 7 days by karber method; format: organism-based; conditions: in vivo, time 7 day
[16] = Toxicity in female Balb/c mouse implanted with mouse 4T1 cells assessed as pathological changes in heart at 12 micromol/kg, ip administered every other day for 2 weeks by H and E staining based analysis; format: organism-based; conditions: in vivo, 336 h, dose 12 µmol/kg
MCF7 [17] = assay: Antimigratory activity in human MCF7 cells assessed as reduction in cell migration at 1 times IC50 measured after 24 hrs by scratch-wound healing assay; format: functional, cell-based
[18] = Acute toxicity in female Balb/c mouse assessed as necrosis in kidney at approximately LD50 administered as single ip dose by H and E staining based analysis; format: organism-based; conditions: in vivo
[19] = Acute toxicity in female Balb/c mouse assessed as shrinking cytoplasm in kidney at approximately LD50 administered as single ip dose by H and E staining based analysis; format: organism-based; conditions: in vivo
[20] = Acute toxicity in female Balb/c mouse assessed as reduction in survival rate at 37 to 55 mg/kg, ip administered as single dose and measured for 7 days; format: organism-based; conditions: in vivo, 168 h, dose 37-55 mg/kg, time 7 day
[21] = Acute toxicity in female Balb/c mouse assessed as reduction in survival rate at 37 mg/kg, ip administered as single dose and measured for 7 days; format: organism-based; conditions: in vivo, 168 h, time 7 day
[22] = Acute toxicity in female Balb/c mouse assessed as reduction in survival rate at 65 mg/kg, ip administered as single dose and measured for 7 days; format: organism-based; conditions: in vivo, 168 h, time 7 day
4T1 [23] = assay: Antitumor activity against mouse 4T1 cells implanted in female Balb/c mouse assessed as nucleus contraction at 12 micromol/kg, ip administered every other day for 2 weeks by H and E staining based analysis; format: functional, organism-based; conditions: dose 12.0 µmol/kg
[24] = Acute toxicity in female Balb/c mouse assessed as reduction in survival rate at 82 to 130 mg/kg, ip administered as single dose and measured for 7 days; format: organism-based; conditions: in vivo, 168 h, dose 82-130 mg/kg, time 7 day
4T1 [25] = assay: Antitumor activity against mouse 4T1 cells implanted in female Balb/c mouse assessed as increase in tumor cell lysis at 12 micromol/kg, ip administered every other day for 2 weeks by H and E staining based analysis; format: functional, organism-based; conditions: dose 12.0 µmol/kg

Structure (SMILES)	Activity [1]	Activity (MCF7 [3])	Activity [4]	Activity (Cell membrane [5]) [%]	Activity [6]	Activity (Cell membrane [7])	Activity (MCF7 [9]) [%]	Activity [10]	Activity (MCF7 [11]) [%]	Activity (MCF7 [12]) [%]	Activity (MCF7 [13]) [%]	IC50 at 1 h [14] [µM]	LD50 at 168 h [15] [mg/kg]	Activity [16]	Activity (MCF7 [17])	also measured
CC(C)C[C@H](NC(=O)[C@H](CCCCN)NC(=O)[C@H](CCCCN)NC(=O)[C@H](CC(C)C)NC(=O)[C@H](CC(C)C)NC(=O)[C@H](CCCCN)NC(=O)[C@H](CCCCN)NC(=O)[C@H](CC(C)C)NC(=O)[C@H](CC(C)C)NC(=O)[C@H](CCCCN)NC(=O)[C@H](CCCCN)NC(=O)[C@H](CC(C)C)NC(=O)[C@@H](N)CC(C)C)C(=O)N[C@@H](CCC(=O)O)C(N)=O (H-LLKKLLKKLLKKLE-NH2)	Non-Toxic	Active	Non-Toxic	74.1	Non-Toxic	Active	~50	Non-Toxic	18	~30	5.69	59.3	79.9	Non-Toxic	Active	Activity [2]: Toxic; Activity [8]: Non-Toxic
CC(C)C[C@H](NC(=O)[C@H](CC(C)C)NC(=O)[C@H](CCCCN)NC(=O)[C@H](CCCCN)NC(=O)[C@H](CC(C)C)NC(=O)[C@H](CC(C)C)NC(=O)[C@H](CCCCN)NC(=O)[C@H](CCCCN)NC(=O)[C@H](CC(C)C)NC(=O)[C@H](CC(C)C)NC(=O)[C@H](CCCCN)NC(=O)[C@H](CCCCN)NC(=O)[C@H](CC(C)C)NC(=O)[C@@H](N)CC(C)C)C(N)=O (H-LLKKLLKKLLKKLL-NH2)	Non-Toxic	Active	Non-Toxic	82	Non-Toxic	Active	~50	Non-Toxic	18.9	~30	3.79	5.4	50.2	Non-Toxic	Active	Activity [18]: Toxic; Activity [19]: Toxic; Activity [20]: Toxic; Activity [21]: Non-Toxic
CC(C)C[C@H](NC(=O)[C@H](CCCCN)NC(=O)[C@H](CCCCN)NC(=O)[C@H](CC(C)C)NC(=O)[C@H](CC(C)C)NC(=O)[C@H](CCCCN)NC(=O)[C@H](CCCCN)NC(=O)[C@H](CC(C)C)NC(=O)[C@H](CC(C)C)NC(=O)[C@H](CCCCN)NC(=O)[C@H](CCCCN)NC(=O)[C@H](CC(C)C)NC(=O)[C@@H](N)CC(C)C)C(=O)N[C@@H](CCCC(=O)O)C(N)=O (H-LLKKLLKKLLKKL[Aad]-NH2)	Non-Toxic	Active	Non-Toxic	82.3	Non-Toxic	Active	~50	Non-Toxic	25.9	~30	4.4	38.7	84	Non-Toxic	Active	Activity [22]: Non-Toxic; Activity (4T1 [23]): Active; Activity [24]: Toxic; Activity (4T1 [25]): Active
